ChEMBL document CHEMBL1201862, “PubChem BioAssay data set” (2004)
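Grown in 96-well plates, cells were treated for 48 hours with each compound at five concentrations. Insufficient inhibition: endpoint recorded as highest concentration tested. GI50 marks 50% less growth.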 Activity calls are given as the source filed them. Rule as the data show it: active = GI50 up to about 1.1 µM and inactive = higher.

Columns and labels:
Test in all cases: DTP human tumour cell line panel, 48 h
SF-295 = system: SF-295
LOX IMVI = system: LOX IMVI
NCI-H226 = system: NCI-H226
HCC 2998 = system: HCC 2998
PC-3 = system: PC-3
M14 = system: M14
OVCAR-8 = system: OVCAR-8
IGROV-1 = system: IGROV-1
SNB-19 = system: SNB-19
TK-10 = system: TK-10
SNB-75 = system: SNB-75
RXF 393 = system: RXF 393
SK-MEL-28 = system: SK-MEL-28
UACC-257 = system: UACC-257
SR = system: SR
OVCAR-5 = system: OVCAR-5
SF-268 = system: SF-268
SK-MEL-2 = system: SK-MEL-2
HOP-92 = system: HOP-92

| SMILES | GI50 (SF-295) | GI50 (LOX IMVI) | GI50 (NCI-H226) | GI50 (HCC 2998) | GI50 (PC-3) | GI50 (M14) | GI50 (OVCAR-8) | GI50 (IGROV-1) | GI50 (SNB-19) | GI50 (TK-10) | GI50 (SNB-75) | GI50 (RXF 393) | GI50 (SK-MEL-28) | GI50 (UACC-257) | GI50 (SR) | GI50 (OVCAR-5) | GI50 (SF-268) | GI50 (SK-MEL-2) | GI50 (HOP-92) |
| --- | --- | --- | --- | --- | --- | --- | --- | --- | --- | --- | --- | --- | --- | --- | --- | --- | --- | --- | --- |
| CC(C)OC(=O)c1ccc(NCc2cc(O)ccc2O)cc1 | 6.3 µM (inactive) | 3.4 µM (inactive) | 3.21 µM (inactive) | 11.1 µM (inactive) | 1.8 µM (inactive) | 6.84 µM (inactive) | 2.51 µM (inactive) | 3.45 µM (inactive) | 3.3 µM (inactive) | 4.53 µM (inactive) | 4.61 µM (inactive) | 1.32 µM (inactive) | 8 µM (inactive) | 10.3 µM (inactive) | 1.06 µM (active) | 10.4 µM (inactive) | 4.07 µM (inactive) | 10.9 µM (inactive) | 1.95 µM (inactive) |
| CCOC(=O)c1ccc(/N=C/C=C(\Nc2ccc(C(=O)OCC)cc2)C23CC4CC(CC(C4)C2)C3)cc1 | 52.1 µM (inactive) | 95.3 µM (inactive) | > 100 µM (inactive) | 91.2 µM (inactive) | 51.1 µM (inactive) | 35.8 µM (inactive) | 44.3 µM (inactive) | > 100 µM (inactive) | > 100 µM (inactive) | 71.6 µM (inactive) | 65.6 µM (inactive) | 27 µM (inactive) | > 100 µM (inactive) | 35.9 µM (inactive) | 11.1 µM (inactive) | 35.8 µM (inactive) | > 100 µM (inactive) | > 100 µM (inactive) | 15.8 µM (inactive) |
| c1ccc(CSc2nc(N3CCOCC3)c3cn[nH]c3n2)cc1 | 24.4 µM (inactive) | 15.4 µM (inactive) | 17 µM (inactive) | 23.6 µM (inactive) | 13.4 µM (inactive) | 23.6 µM (inactive) | 18.4 µM (inactive) | 10.2 µM (inactive) | 24.7 µM (inactive) | 18.5 µM (inactive) | 30.4 µM (inactive) | 6.1 µM (inactive) | 19.1 µM (inactive) | 15 µM (inactive) | 10.5 µM (inactive) | 22.3 µM (inactive) | 20.4 µM (inactive) | 16.6 µM (inactive) | 0.237 µM (active) |
| Cc1cc2c(cc1Cl)Sc1nnc(Nc3ccccc3)n1S2(=O)=O | 13.3 µM (inactive) | 3.85 µM (inactive) | 3.08 µM (inactive) | 3.96 µM (inactive) | 5.7 µM (inactive) | 14.1 µM (inactive) | 5.97 µM (inactive) | 10 µM (inactive) | – | 17.8 µM (inactive) | 5.47 µM (inactive) | 5.26 µM (inactive) | 15.8 µM (inactive) | 16.6 µM (inactive) | 2.59 µM (inactive) | 31.9 µM (inactive) | 2.32 µM (inactive) | 4.84 µM (inactive) | 5.57 µM (inactive) |
| CCOC(=O)C(=O)C(/C(=N/N(C)C)C(=O)Nc1ccc(C)cc1C)c1nc2ccccc2nc1O (stereo unspecified) | > 100 µM (inactive) | > 100 µM (inactive) | > 100 µM (inactive) | > 100 µM (inactive) | > 100 µM (inactive) | > 100 µM (inactive) | > 100 µM (inactive) | > 100 µM (inactive) | > 100 µM (inactive) | > 100 µM (inactive) | > 100 µM (inactive) | > 100 µM (inactive) | > 100 µM (inactive) | > 100 µM (inactive) | > 100 µM (inactive) | > 100 µM (inactive) | > 100 µM (inactive) | > 100 µM (inactive) | > 100 µM (inactive) |
| Cc1cccc2c1CC(C1OC(=O)c3c(C)cccc31)C2=O (stereo unspecified) | > 100 µM (inactive) | 70.6 µM (inactive) | > 100 µM (inactive) | > 100 µM (inactive) | > 100 µM (inactive) | > 100 µM (inactive) | > 100 µM (inactive) | > 100 µM (inactive) | > 100 µM (inactive) | > 100 µM (inactive) | > 100 µM (inactive) | > 100 µM (inactive) | > 100 µM (inactive) | > 100 µM (inactive) | > 100 µM (inactive) | > 100 µM (inactive) | > 100 µM (inactive) | > 100 µM (inactive) | > 100 µM (inactive) |
| O=C1O/C(=C\c2ccc(O)cc2)C(c2ccc(O)c(Cl)c2)=C1Cl | 39.4 µM (inactive) | 50.6 µM (inactive) | 58.1 µM (inactive) | 38.2 µM (inactive) | > 100 µM (inactive) | 35.7 µM (inactive) | 49.5 µM (inactive) | 40.1 µM (inactive) | 76.9 µM (inactive) | 54.8 µM (inactive) | 70 µM (inactive) | 30.9 µM (inactive) | > 100 µM (inactive) | 49.5 µM (inactive) | 27.7 µM (inactive) | > 100 µM (inactive) | 29.2 µM (inactive) | 31.2 µM (inactive) | 26.5 µM (inactive) |
| CC(=O)N1CN2C(=O)CCC2c2ccccc21 (stereo unspecified) | > 100 µM (inactive) | > 100 µM (inactive) | > 100 µM (inactive) | > 100 µM (inactive) | > 100 µM (inactive) | > 100 µM (inactive) | > 100 µM (inactive) | > 100 µM (inactive) | > 100 µM (inactive) | > 100 µM (inactive) | > 100 µM (inactive) | > 100 µM (inactive) | > 100 µM (inactive) | > 100 µM (inactive) | 0.165 µM (active) | > 100 µM (inactive) | > 100 µM (inactive) | > 100 µM (inactive) | > 100 µM (inactive) |
| CS(=O)(=O)OCCN(CCOS(C)(=O)=O)c1ccc(/C=N/c2cccc(Cl)c2)cc1 | 1.46 µM (inactive) | 1.13 µM (inactive) | 2.06 µM (inactive) | 2.7 µM (inactive) | 24.5 µM (inactive) | 14.5 µM (inactive) | 10 µM (inactive) | 15.5 µM (inactive) | 5.46 µM (inactive) | 2.19 µM (inactive) | 2.11 µM (inactive) | 2.78 µM (inactive) | 10.4 µM (inactive) | 2.84 µM (inactive) | 0.0537 µM (active) | 2.95 µM (inactive) | 7.55 µM (inactive) | 23.8 µM (inactive) | 23.8 µM (inactive) |
| CC(=O)Nc1ccc2c(C)c3c(nc2n1)[nH]c1ccccc13 | 34.3 µM (inactive) | 16.4 µM (inactive) | 23.4 µM (inactive) | 33 µM (inactive) | 27.2 µM (inactive) | 25.4 µM (inactive) | 24.9 µM (inactive) | 22.2 µM (inactive) | – | 55.5 µM (inactive) | 22.1 µM (inactive) | 33.6 µM (inactive) | – | 32.9 µM (inactive) | 17.6 µM (inactive) | 51.4 µM (inactive) | 33 µM (inactive) | 22.6 µM (inactive) | 20.4 µM (inactive) |
| C#CC1(O)CCC2[C@@H]3CCc4cc(Oc5nc(F)nc(-c6c(C)c(C(=O)OCC)n7ccccc67)n5)ccc4C3CC[C@@]21C (stereo partly specified) | > 100 µM (inactive) | > 100 µM (inactive) | > 100 µM (inactive) | > 100 µM (inactive) | > 100 µM (inactive) | > 100 µM (inactive) | > 100 µM (inactive) | > 100 µM (inactive) | > 100 µM (inactive) | > 100 µM (inactive) | > 100 µM (inactive) | > 100 µM (inactive) | > 100 µM (inactive) | > 100 µM (inactive) | > 100 µM (inactive) | > 100 µM (inactive) | > 100 µM (inactive) | > 100 µM (inactive) | > 100 µM (inactive) |
| O=c1[nH]cnc2c1ncn2[C@@H]1C[C@@H]1CO | – | > 100 µM (inactive) | > 100 µM (inactive) | > 100 µM (inactive) | > 100 µM (inactive) | > 100 µM (inactive) | > 100 µM (inactive) | > 100 µM (inactive) | > 100 µM (inactive) | > 100 µM (inactive) | > 100 µM (inactive) | > 100 µM (inactive) | > 100 µM (inactive) | > 100 µM (inactive) | > 100 µM (inactive) | > 100 µM (inactive) | > 100 µM (inactive) | > 100 µM (inactive) | > 100 µM (inactive) |
| COC(=O)/C=C\C(C#N)(C#N)/N=C/c1ccsc1 | 13.3 µM (inactive) | 2.24 µM (inactive) | 20.4 µM (inactive) | 16.1 µM (inactive) | 11.6 µM (inactive) | 2.45 µM (inactive) | 4.19 µM (inactive) | 9.08 µM (inactive) | 14.5 µM (inactive) | 2.36 µM (inactive) | 15.7 µM (inactive) | 1.78 µM (inactive) | 2.83 µM (inactive) | 4.45 µM (inactive) | 0.214 µM (active) | 7.24 µM (inactive) | 15.2 µM (inactive) | 16.9 µM (inactive) | 1.74 µM (inactive) |
| COCN1CCN=c2c1c1c3c(c4ccccc4n23)CCC1 | > 100 µM (inactive) | > 100 µM (inactive) | 10.7 µM (inactive) | > 100 µM (inactive) | > 100 µM (inactive) | > 100 µM (inactive) | > 100 µM (inactive) | > 100 µM (inactive) | > 100 µM (inactive) | > 100 µM (inactive) | > 100 µM (inactive) | > 100 µM (inactive) | > 100 µM (inactive) | > 100 µM (inactive) | > 100 µM (inactive) | > 100 µM (inactive) | > 100 µM (inactive) | > 100 µM (inactive) | > 100 µM (inactive) |
| O=C1OC(c2ccc(O)c(Cl)c2)(c2ccc(O)c(Cl)c2)c2ccc(Br)c3cccc1c23.O=C1OC(c2ccc(O)c(Cl)c2)(c2ccc(O)c(Cl)c2)c2cccc3c(Br)ccc1c23 | 18.3 µM (inactive) | 20 µM (inactive) | 17.7 µM (inactive) | 19.3 µM (inactive) | 14.3 µM (inactive) | 28.8 µM (inactive) | 27.8 µM (inactive) | 18.9 µM (inactive) | 23.1 µM (inactive) | 17.1 µM (inactive) | 22.5 µM (inactive) | 17.3 µM (inactive) | 20.9 µM (inactive) | 19.5 µM (inactive) | 21.2 µM (inactive) | 20.7 µM (inactive) | 14.2 µM (inactive) | 19.6 µM (inactive) | 9.53 µM (inactive) |
